Measurements from patent publication US12522601B2, “1,3,4-oxadiazole derivative compounds as histone deacetylase 6 inhibitor, and the pharmaceutical composition comprising the same” (CHONG KUN DANG PHARMACEUTICAL CORP., priority 2020, dated 2026).
pIC50: −log10 of the molar value.

Legend:
[1] = target: T1, human recombinant HDAC1 (Homo sapiens, UniProt Q13547); assay: In vitro HDAC enzyme activity inhibition assay, HDAC1 (HDAC Fluorimetric Drug Discovery Kit); assay type: biochemical; conditions: human recombinant HDAC1, Fluor de Lys-SIRT1 substrate 10 μM, 30° C. for 60 minutes
T1 construct: purchased Enzo Life Sciences, Inc. BML-SE456
T1 sequence (Q13547 whole entry): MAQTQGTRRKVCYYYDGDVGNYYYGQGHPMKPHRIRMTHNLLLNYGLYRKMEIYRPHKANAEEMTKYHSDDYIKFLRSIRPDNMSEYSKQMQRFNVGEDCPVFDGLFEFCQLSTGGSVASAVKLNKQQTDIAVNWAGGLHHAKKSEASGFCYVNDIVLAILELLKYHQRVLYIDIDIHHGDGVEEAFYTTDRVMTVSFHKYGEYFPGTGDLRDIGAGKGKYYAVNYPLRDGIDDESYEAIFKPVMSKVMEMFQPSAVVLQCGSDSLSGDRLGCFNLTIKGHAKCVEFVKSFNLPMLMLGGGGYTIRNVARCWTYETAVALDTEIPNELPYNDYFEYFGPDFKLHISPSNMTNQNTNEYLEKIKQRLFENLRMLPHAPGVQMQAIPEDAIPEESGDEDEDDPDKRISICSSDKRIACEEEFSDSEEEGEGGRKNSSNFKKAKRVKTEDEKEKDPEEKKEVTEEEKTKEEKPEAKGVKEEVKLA
In short: (§1)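 Both HDAC1 and HDAC6 (human recombinant, 0.3 μg) tested identically: 10 μM fluorogenic Fluor de Lys-SIRT1 substrate, reaction 60 min at 30° C, developer added for 30 min. IC50 calculated from Ex 360/Em 460 signal over 5-fold serial dilutions.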

[2] = target: T2, human recombinant HDAC6 (Homo sapiens, UniProt Q9UBN7); assay: In vitro HDAC enzyme activity inhibition assay, HDAC6 (HDAC Fluorimetric Drug Discovery Kit); assay type: biochemical; conditions: for HDAC6 Selectivity (fold): HDAC6 versus HDAC1; for pIC50: human recombinant HDAC6, same protocol as the HDAC1 test
T2 construct: purchased Calbiochem Inc. 382180
T2 sequence (Q9UBN7 1-1215): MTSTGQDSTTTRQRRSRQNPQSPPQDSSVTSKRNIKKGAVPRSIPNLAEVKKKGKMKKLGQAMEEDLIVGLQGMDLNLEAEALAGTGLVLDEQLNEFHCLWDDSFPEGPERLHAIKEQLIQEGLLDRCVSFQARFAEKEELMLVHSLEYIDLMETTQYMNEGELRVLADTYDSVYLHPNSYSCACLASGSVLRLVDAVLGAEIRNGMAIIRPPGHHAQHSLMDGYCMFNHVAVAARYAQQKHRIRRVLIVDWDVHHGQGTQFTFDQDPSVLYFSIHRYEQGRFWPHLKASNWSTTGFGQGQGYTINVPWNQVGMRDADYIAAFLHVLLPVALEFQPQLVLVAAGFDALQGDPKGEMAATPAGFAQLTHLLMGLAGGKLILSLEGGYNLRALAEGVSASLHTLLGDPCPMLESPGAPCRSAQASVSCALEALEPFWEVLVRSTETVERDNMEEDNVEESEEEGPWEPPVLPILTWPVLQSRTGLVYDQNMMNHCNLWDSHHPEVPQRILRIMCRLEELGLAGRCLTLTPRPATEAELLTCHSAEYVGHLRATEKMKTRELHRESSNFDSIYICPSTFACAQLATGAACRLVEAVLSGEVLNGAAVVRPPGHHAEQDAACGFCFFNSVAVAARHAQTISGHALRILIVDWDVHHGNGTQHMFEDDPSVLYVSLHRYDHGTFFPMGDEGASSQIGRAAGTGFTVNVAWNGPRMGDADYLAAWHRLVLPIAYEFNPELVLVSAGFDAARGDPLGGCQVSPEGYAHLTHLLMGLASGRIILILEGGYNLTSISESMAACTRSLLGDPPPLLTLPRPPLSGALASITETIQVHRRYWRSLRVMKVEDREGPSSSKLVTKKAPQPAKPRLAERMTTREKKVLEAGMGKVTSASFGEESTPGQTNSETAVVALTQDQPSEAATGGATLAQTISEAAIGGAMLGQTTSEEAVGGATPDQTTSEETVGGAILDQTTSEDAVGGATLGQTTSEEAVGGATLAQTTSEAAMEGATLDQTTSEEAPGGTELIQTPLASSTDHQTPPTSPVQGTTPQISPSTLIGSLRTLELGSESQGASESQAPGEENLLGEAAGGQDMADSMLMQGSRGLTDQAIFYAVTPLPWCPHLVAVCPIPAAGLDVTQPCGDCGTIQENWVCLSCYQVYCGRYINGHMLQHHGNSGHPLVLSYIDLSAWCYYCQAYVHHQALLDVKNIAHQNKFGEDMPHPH
In short: as §1

| SMILES | pIC50 [1] | HDAC6 Selectivity (fold) [2] | pIC50 [2] |
| --- | --- | --- | --- |
| CS(=O)(=O)N1CC(C(=O)N(Cc2cn3ccc(-c4nnc(C(F)F)o4)cc3n2)c2cccc(F)c2)C1 [Compound 4203, N-((7-(5-(difluoromethyl)-1,3,4-oxadiazol-2-yl)imidazo[1,2-a]pyridin-2-yl)methyl)-N-(3-fluorophenyl)-1-(methylsulfonyl) azetidine-3-carboxamide] | < 4.30 | 295 fold | 6.77 |
| COC(=O)N1CC(C(=O)N(Cc2cn3ccc(-c4nnc(C(F)F)o4)cc3n2)c2cccc(F)c2)C1 [Compound 4204, methyl 3-(((7-(5-(difluoromethyl)-1,3,4-oxadiazol-2-yl)imidazo[1,2-a]pyridin-2-yl)methyl)(3-fluorophenyl)carbamoyl) azetidine-1-carboxylate] | < 4.30 | 268 fold | 6.73 |
| CN(C)C(=O)N1CC(C(=O)N(Cc2cn3ccc(-c4nnc(C(F)F)o4)cc3n2)c2cccc(F)c2)C1 [Compound 4205, N3-((7-(5-(difluoromethyl)-1,3,4-oxadiazol-2-yl)imidazo[1,2-a]pyridin-2-yl)methyl)-N3-(3-fluorophenyl)-N1,N1-dimethylazetidine-1,3-dicarboxamide] | < 4.30 | 348 fold | 6.84 |
| O=C(C1CN(c2ccccn2)C1)N(Cc1cn2ccc(-c3nnc(C(F)F)o3)cc2n1)c1cccc(F)c1 [Compound 4206, N-((7-(5-(difluoromethyl)-1,3,4-oxadiazol-2-yl)imidazo[1,2-a]pyridin-2-yl)methyl)-N-(3-fluorophenyl)-1-(pyridin-2-yl) azetidine-3-carboxamide] | < 4.30 | 361 fold | 6.86 |
| O=C(C1CN(c2ncccn2)C1)N(Cc1cn2ccc(-c3nnc(C(F)F)o3)cc2n1)c1cccc(F)c1 [Compound 4207, N-((7-(5-(difluoromethyl)-1,3,4-oxadiazol-2-yl)imidazo[1,2-a]pyridin-2-yl)methyl)-N-(3-fluorophenyl)-1-(pyrimidin-2-yl) azetidine-3-carboxamide] | < 4.30 | 298 fold | 6.78 |
| O=C(N1CCN(C2CC3(CCC3)C2)CC1)N(Cc1cn2ccc(-c3nnc(C(F)F)o3)cc2n1)c1cccc(F)c1 [Compound 4620] | < 4.30 | 190 fold | 6.58 |
| CN1CC2(C1)CN(C(=O)N(Cc1cn3ccc(-c4nnc(C(F)F)o4)cc3n1)c1ccccc1)C2 [Compound 4625, N-((7-(5-(difluoromethyl)-1,3,4-oxadiazol-2-yl)imidazo[1,2-a]pyridin-2-yl)methyl)-6-methyl-N-phenyl-2,6-diazaspiro[3.3]heptan-2-carboxamide] | < 4.30 | 510 fold | 7.01 |
| CC(C)(C)OC(=O)N1CCN(C(=O)N(Cc2cn3ccc(-c4nnc(C(F)(F)F)o4)cc3n2)c2cccc(F)c2)CC1 [Compound 6892, tert-butyl 4-((3-fluorophenyl) ((7-(5-(trifluoromethyl)-1,3,4-oxadiazol-2-yl)imidazo[1,2-a]pyridine-2-yl)methyl)carbamoyl)piperazine-1-carboxylate] | < 4.30 | 21.2 fold | 5.63 |

More lines, now with the values ahead:

| pIC50 [1] | HDAC6 Selectivity (fold) [2] | pIC50 [2] | SMILES |
| --- | --- | --- | --- |
| < 4.30 | 308 fold | 6.79 | O=C(C1CCN(C2CC3(CCC3)C2)CC1)N(Cc1cn2ccc(-c3nnc(C(F)F)o3)cc2n1)c1cccc(F)c1 [Compound 4618, N-((7-(5-(difluoromethyl)-1,3,4-oxadiazol-2-yl)imidazo[1,2-a]pyridin-2-yl)methyl)-N-(3-fluorophenyl)-1-(spiro[3.3]heptan-2-yl)piperidine-4-carboxamide] |
| < 4.30 | 253 fold | 6.71 | O=C(C1CCN(C2CC3(COC3)C2)CC1)N(Cc1cn2ccc(-c3nnc(C(F)F)o3)cc2n1)c1cccc(F)c1 [Compound 4619, N-((7-(5-(difluoromethyl)-1,3,4-oxadiazol-2-yl)imidazo[1,2-a]pyridin-2-yl)methyl)-N-(3-fluorophenyl)-1-(2-oxaspiro[3.3]heptan-6-yl)piperidine-4-carboxamide] |
| < 4.30 | 326 fold | 6.82 | O=C(N1CCN(C2CC3(COC3)C2)CC1)N(Cc1cn2ccc(-c3nnc(C(F)F)o3)cc2n1)c1cccc(F)c1 [Compound 4621] |
